Experimental data: ChEMBL document CHEMBL1157550, “Incorporation of fluorinated phenylalanine generates highly specific inhibitor of proteasome's chymotrypsin-like sites” (J Med Chem, 2010)
Active and inactive are the calls of the source. The rule behind the calls is not given here.

Legend:
[1] = biological target: Proteasome Macropain subunit (Homo sapiens) (UniProt P49721); assay: Inhibition of 26S proteasome beta 2 in human HEK293 cell lysate assessed as residual activity at 0.002 uM after 1 hr; assay type: cell-free
[2] = biological target: Proteasome Macropain subunit (Homo sapiens) (UniProt P49721); assay: Inhibition of 26S proteasome beta 2 in human HEK293 cell lysate assessed as residual activity at 0.167 uM after 1 hr; assay type: cell-free
[3] = biological target: T1, Proteasome component C5 (Homo sapiens) (UniProt P20618); assay: (§1) Inhibition of 26S proteasome beta 1 in human HEK293 cell lysate assessed as residual activity at […] after 1 hr; assay type: cell-free
T1 sequence (whole entry): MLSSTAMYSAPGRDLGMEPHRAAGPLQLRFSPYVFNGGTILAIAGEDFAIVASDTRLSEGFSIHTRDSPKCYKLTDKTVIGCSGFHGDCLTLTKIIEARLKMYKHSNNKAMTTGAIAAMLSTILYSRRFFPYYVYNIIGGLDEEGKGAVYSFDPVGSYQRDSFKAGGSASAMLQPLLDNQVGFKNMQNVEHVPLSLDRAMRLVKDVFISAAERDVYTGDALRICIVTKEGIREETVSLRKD

[4] = biological target: T1, Proteasome component C5 (Homo sapiens); assay: Inhibition of 26S proteasome beta 1 in human HEK293 cell lysate assessed as residual activity at 0.006 uM after 1 hr; assay type: cell-free
[5] = biological target: Proteasome subunit beta type-5 (Homo sapiens) (UniProt P28074); assay: Inhibition of 26S proteasome beta 5 in human HEK293 cell lysate assessed as residual activity at 0.167 uM after 1 hr
[6] = biological target: T1, Proteasome component C5 (Homo sapiens); assay: Inhibition of 26S proteasome beta 1 in human HEK293 cell lysate assessed as residual activity at 0.167 uM after 1 hr; assay type: cell-free
[7] = biological target: Proteasome Macropain subunit (Homo sapiens) (UniProt P49721); assay: Inhibition of 26S proteasome beta 2 in human HEK293 cell lysate assessed as residual activity at 0.001 uM after 1 hr; assay type: cell-free
[8] = biological target: T1, Proteasome component C5 (Homo sapiens); assay: Inhibition of 26S proteasome beta 1 in human HEK293 cell lysate assessed as residual activity at 13.5 uM after 1 hr; assay type: cell-free
[9] = biological target: Proteasome subunit beta type-5 (Homo sapiens) (UniProt P28074); assay: Inhibition of 26S proteasome beta 5 in human HEK293 cell lysate assessed as residual activity at […] after 1 hr
[10] = biological target: T1, Proteasome component C5 (Homo sapiens); assay: as §1; assay type: cell-free; remark: listed apart in the source
[11] = biological target: Proteasome subunit beta type-5 (Homo sapiens) (UniProt P28074); assay: Inhibition of 26S proteasome beta 5 in human HEK293 cell lysate assessed as residual activity at 13.5 uM after 1 hr
[12] = biological target: Proteasome subunit beta type-5 (Homo sapiens) (UniProt P28074); assay: Inhibition of 26S proteasome beta 5 in human HEK293 cell lysate assessed as residual activity at 0.019 uM after 1 hr
[13] = biological target: T1, Proteasome component C5 (Homo sapiens); assay: Inhibition of 26S proteasome beta 1 in human HEK293 cell lysate assessed as residual activity at 0.019 uM after 1 hr; assay type: cell-free
[14] = biological target: Proteasome Macropain subunit (Homo sapiens) (UniProt P49721); assay: (§2) Inhibition of 26S proteasome beta 2 in human HEK293 cell lysate assessed as residual activity at […] after 1 hr; assay type: cell-free
[15] = biological target: Proteasome Macropain subunit (Homo sapiens) (UniProt P49721); assay: Inhibition of 26S proteasome beta 2 in human HEK293 cell lysate assessed as residual activity at 1.5 uM after 1 hr; assay type: cell-free
[16] = biological target: Proteasome Macropain subunit (Homo sapiens) (UniProt P49721); assay: Inhibition of 26S proteasome beta 2 in human HEK293 cell lysate assessed as residual activity at 0.5 uM after 1 hr; assay type: cell-free
[17] = biological target: Proteasome Macropain subunit (Homo sapiens) (UniProt P49721); assay: as §2; assay type: cell-free; remark: listed apart in the source
[18] = biological target: T1, Proteasome component C5 (Homo sapiens); assay: Inhibition of 26S proteasome beta 1 in human HEK293 cell lysate assessed as residual activity at 0.002 uM after 1 hr; assay type: cell-free
[19] = biological target: T1, Proteasome component C5 (Homo sapiens); assay: Inhibition of 26S proteasome beta 1 in human HEK293 cell lysate assessed as residual activity at 0.001 uM after 1 hr; assay type: cell-free
[20] = biological target: Proteasome subunit beta type-5 (Homo sapiens) (UniProt P28074); assay: Inhibition of 26S proteasome beta 5 in human HEK293 cell lysate assessed as residual activity at 0.001 uM after 1 hr
[21] = biological target: T2, Proteasome Macropain subunit MB1 (Homo sapiens) (UniProt P28074); assay: Displacement of fluorescent labeled MV151 from 26S proteasome beta 5 in human HEK293 cell lysate assessed as disappearance of band at 0.1 to 1 uM after 1 hr by SDS-PAGE; assay type: cell-free
T2 sequence (whole entry): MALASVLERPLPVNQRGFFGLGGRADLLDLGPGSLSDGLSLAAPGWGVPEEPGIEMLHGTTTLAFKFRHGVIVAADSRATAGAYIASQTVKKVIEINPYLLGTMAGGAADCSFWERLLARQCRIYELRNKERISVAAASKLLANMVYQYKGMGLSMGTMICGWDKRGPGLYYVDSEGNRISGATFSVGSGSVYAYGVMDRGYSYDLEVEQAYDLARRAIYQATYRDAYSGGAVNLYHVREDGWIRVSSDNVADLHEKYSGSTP

[22] = biological target: Proteasome subunit beta type-5 (Homo sapiens) (UniProt P28074); assay: Inhibition of 26S proteasome beta 5 in human HEK293 cell lysate assessed as residual activity at 1.5 uM after 1 hr
[23] = biological target: Proteasome subunit beta type-5 (Homo sapiens) (UniProt P28074); assay: Inhibition of 26S proteasome beta 5 in human HEK293 cell lysate assessed as residual activity at 0.002 uM after 1 hr
[24] = biological target: T1, Proteasome component C5 (Homo sapiens); assay: Displacement of fluorescent labeled MV151 from 26S proteasome beta 1 in human HEK293 cell lysate assessed as disappearance of band at 0.1 to 1 uM after 1 hr by SDS-PAGE; assay type: cell-free
[25] = biological target: Proteasome Macropain subunit (Homo sapiens) (UniProt P49721); assay: Inhibition of 26S proteasome beta 2 in human HEK293 cell lysate assessed as residual activity at 0.019 uM after 1 hr; assay type: cell-free
[26] = biological target: T1, Proteasome component C5 (Homo sapiens); assay: Inhibition of 26S proteasome beta 1 in human HEK293 cell lysate assessed as residual activity at 1.5 uM after 1 hr; assay type: cell-free
[27] = biological target: Proteasome subunit beta type-5 (Homo sapiens) (UniProt P28074); assay: Inhibition of 26S proteasome beta 5 in human HEK293 cell lysate assessed as residual activity at […] after 1 hr; remark: listed apart in the source
[28] = biological target: T1, Proteasome component C5 (Homo sapiens); assay: Inhibition of 26S proteasome beta 1 in human HEK293 cell lysate assessed as residual activity at 0.5 uM after 1 hr; assay type: cell-free
[29] = biological target: Proteasome Macropain subunit (Homo sapiens) (UniProt P49721); assay: Inhibition of 26S proteasome beta 2 in human HEK293 cell lysate assessed as residual activity at 13.5 uM after 1 hr; assay type: cell-free
[30] = biological target: Proteasome subunit beta type-5 (Homo sapiens) (UniProt P28074); assay: Inhibition of 26S proteasome beta 5 in human HEK293 cell lysate assessed as residual activity at 0.006 uM after 1 hr
[31] = biological target: Proteasome subunit beta type-5 (Homo sapiens) (UniProt P28074); assay: Inhibition of 26S proteasome beta 5 in human HEK293 cell lysate assessed as residual activity at 0.5 uM after 1 hr
[32] = biological target: Proteasome Macropain subunit (Homo sapiens) (UniProt P49721); assay: Inhibition of 26S proteasome beta 2 in human HEK293 cell lysate assessed as residual activity at 0.006 uM after 1 hr; assay type: cell-free
[33] = biological target: Proteasome Macropain subunit (Homo sapiens) (UniProt P49721); assay: Displacement of fluorescent labeled MV151 from 26S proteasome beta 2 in human HEK293 cell lysate assessed as residual activity at 1 uM after 1 hr by SDS-PAGE; assay type: cell-free
[34] = biological target: T1, Proteasome component C5 (Homo sapiens); assay: Displacement of fluorescent labeled MV151 from 26S proteasome beta 1 in human HEK293 cell lysate assessed as residual activity at 1 uM after 1 hr by SDS-PAGE; assay type: cell-free
[35] = biological target: Proteasome Macropain subunit (Homo sapiens) (UniProt P49721); assay: Displacement of fluorescent labeled MV151 from 26S proteasome beta 2 in human HEK293 cell lysate assessed as residual activity at 100 uM after 1 hr by SDS-PAGE; assay type: cell-free
[36] = biological target: T2, Proteasome Macropain subunit MB1 (Homo sapiens); assay: Displacement of fluorescent labeled MV151 from 26S proteasome beta 5 in human HEK293 cell lysate assessed as residual activity at 100 uM after 1 hr by SDS-PAGE; assay type: cell-free
[37] = biological target: T1, Proteasome component C5 (Homo sapiens); assay: Displacement of fluorescent labeled MV151 from 26S proteasome beta 1 in human HEK293 cell lysate assessed as residual activity at 100 uM after 1 hr by SDS-PAGE; assay type: cell-free
[38] = biological target: T2, Proteasome Macropain subunit MB1 (Homo sapiens); assay: Displacement of fluorescent labeled MV151 from 26S proteasome beta 5 in human HEK293 cell lysate assessed as residual activity at 1 uM after 1 hr by SDS-PAGE; assay type: cell-free

Sequence of Proteasome Macropain subunit (Homo sapiens) (P49721 whole entry): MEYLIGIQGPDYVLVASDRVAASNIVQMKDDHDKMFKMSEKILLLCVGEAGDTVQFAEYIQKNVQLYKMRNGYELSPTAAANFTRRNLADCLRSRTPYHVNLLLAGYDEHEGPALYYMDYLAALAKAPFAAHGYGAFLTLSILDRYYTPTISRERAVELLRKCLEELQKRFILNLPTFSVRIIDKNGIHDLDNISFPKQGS

SMILES	Activity [1]	Activity [2]	Activity [3]	Activity [4]	Activity [5]	Activity [6]	Activity [7]	Activity [8]	Activity [9]	Activity [10]	Activity [11]	Activity [12]	Activity [13]	Activity [14]	Activity [15]	Activity [16]	Activity [17]	Activity [18]	Activity [19]	Activity [20]	further results
CC(C)C[C@H](NC(=O)[C@H](Cc1cc(C(F)(F)F)cc(C(F)(F)F)c1)NC(=O)c1cnccn1)B1OC2C[C@@H]3C[C@@H](C3(C)C)[C@]2(C)O1 (some centres undefined)	93.1%	94.3%	1.1%	93.2%	8.8%	45.2%	100%	0.5%	14.3%	79.1%	0.7%	21.2%	92.3%	63.7%	78.5%	103%	122%	102%	99.9%	35.5%	Activity [21]: Active; Activity [22]: 5.4%; Activity [23]: 41.3%; Activity [24]: Active; Activity [25]: 118%; Activity [26]: 3.1%; Activity [27]: 2.7%; Activity [28]: 17%; Activity [29]: 38.5%; Activity [30]: 23.3%; Activity [31]: 7.7%; Activity [32]: 109%
CC(C)C[C@H](NC(=O)[C@H](Cc1ccccc1)NC(=O)[C@H](Cc1cc(C(F)(F)F)cc(C(F)(F)F)c1)NC(=O)[C@H](Cc1ccccc1)N=[N+]=[N-])C(=O)[C@@]1(C)CO1	104%	98.4%	90.3%	96.9%	44.3%	85.7%	118%	61.3%	70.5%	116%	5.1%	94.4%	94.7%	92.9%	113%	110%	105%	92.8%	112%	116%	Activity [33]: 3.1%; Activity [34]: 167%; Activity [35]: 128%; Activity [36]: 3%; Activity [37]: 80%; Activity [22]: 9.8%; Activity [23]: 101%; Activity [25]: 100%; Activity [26]: 104%; Activity [27]: 11%; Activity [38]: 78%; Activity [28]: 104%; Activity [29]: 73.4%; Activity [30]: 93.5%; Activity [31]: 20.5%; Activity [32]: 100%
CC(C)C[C@H](NC(=O)[C@H](Cc1cc(C(F)(F)F)cc(C(F)(F)F)c1)NC(=O)[C@H](Cc1ccccc1)NC(=O)[C@H](Cc1ccccc1)N=[N+]=[N-])C(=O)[C@@]1(C)CO1	99.6%	112%	67.7%	97.8%	34.9%	93.5%	106%	50.3%	66.2%	103%	3%	100%	98.1%	77.1%	97.3%	99.1%	111%	102%	106%	109%	Activity [33]: 4.3%; Activity [34]: 156%; Activity [35]: 92%; Activity [36]: 2.6%; Activity [37]: 61%; Activity [22]: 9.5%; Activity [23]: 97%; Activity [25]: 111%; Activity [26]: 82.8%; Activity [27]: 5.2%; Activity [38]: 45%; Activity [28]: 89.9%; Activity [29]: 57.9%; Activity [30]: 92.2%; Activity [31]: 19.7%; Activity [32]: 105%
